Like-named read-outs stand apart in the source and are kept apart here.
Target: PDGFRβ (Rattus norvegicus (Rat), UniProt Q05030)
Assay: PDGFRβ Cellular Assay (PDGFRb P-Y751 HTRF in A10 cells stimulated with PDGF-BB)
Format: cell-based
Procedure, shortened: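 Rat A10 cells, plated overnight, were treated with compound for 3 hours, then stimulated with PDGF-BB (working stock 100 ng/mL in 10% FBS medium). After lysis, PDGFRβ P-Y751 was detected by HTRF.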

Chain of PDGFRβ (Q05030 32-1097): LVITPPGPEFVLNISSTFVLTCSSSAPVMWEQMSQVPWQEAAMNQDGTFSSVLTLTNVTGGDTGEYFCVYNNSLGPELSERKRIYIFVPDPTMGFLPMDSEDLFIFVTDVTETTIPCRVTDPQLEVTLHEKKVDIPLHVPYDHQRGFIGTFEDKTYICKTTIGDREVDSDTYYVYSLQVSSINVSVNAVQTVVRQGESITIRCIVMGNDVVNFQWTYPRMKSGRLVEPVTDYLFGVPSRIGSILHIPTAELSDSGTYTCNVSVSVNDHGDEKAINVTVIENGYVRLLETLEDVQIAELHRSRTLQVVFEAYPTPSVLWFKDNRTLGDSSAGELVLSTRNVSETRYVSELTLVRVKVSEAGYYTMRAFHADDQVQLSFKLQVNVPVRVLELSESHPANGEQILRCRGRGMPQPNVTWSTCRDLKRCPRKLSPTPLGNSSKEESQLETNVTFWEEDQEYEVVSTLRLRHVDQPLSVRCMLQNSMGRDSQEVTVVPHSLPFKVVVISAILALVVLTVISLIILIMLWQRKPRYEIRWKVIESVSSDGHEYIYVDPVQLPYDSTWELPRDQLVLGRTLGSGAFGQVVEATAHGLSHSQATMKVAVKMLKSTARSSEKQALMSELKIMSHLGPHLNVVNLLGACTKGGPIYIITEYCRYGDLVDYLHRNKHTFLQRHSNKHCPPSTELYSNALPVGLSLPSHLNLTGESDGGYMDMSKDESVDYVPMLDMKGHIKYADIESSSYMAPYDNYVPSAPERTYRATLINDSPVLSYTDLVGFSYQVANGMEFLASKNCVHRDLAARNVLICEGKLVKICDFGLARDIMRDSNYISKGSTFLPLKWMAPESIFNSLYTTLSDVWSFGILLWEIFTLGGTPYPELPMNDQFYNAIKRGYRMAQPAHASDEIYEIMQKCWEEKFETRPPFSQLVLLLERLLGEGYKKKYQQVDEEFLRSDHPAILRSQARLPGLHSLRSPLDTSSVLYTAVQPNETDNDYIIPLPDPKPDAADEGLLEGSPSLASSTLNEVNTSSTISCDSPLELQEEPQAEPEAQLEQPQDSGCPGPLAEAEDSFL

SMILES | IC50 (read-out: PDGFR Cellular IC50) [nM] | IC50 (PDGFR Cellular IC50) [nM]
Cc1ncc(NC(=O)CN2CCS(=O)(=O)CC2)cc1NC(=O)c1cnn2cc(-c3cnn(C)c3)sc12 [Example 59, N-(5-(2-(1,1-dioxidothiomorpholino)acetamido)-2-methylpyridin-3-yl)-2-(1-methyl-1H-pyrazol-4-yl)pyrazolo[5,1-b]thiazole-7-carboxamide] | > 3000 | –
Cc1ncc(NC(=O)CN2CCCOCC2)cc1NC(=O)c1cnn2cc(-c3cnn(C)c3)sc12 [Example 80, N-(5-(2-(1,4-oxazepan-4-yl)acetamido)-2-methylpyridin-3-yl)-2-(1-methyl-1H-pyrazol-4-yl)pyrazolo[5,1-b]thiazole-7-carboxamide] | 37.8 | –
Cc1ncc(C(=O)NCCN2CCCC23CCC3)cc1NC(=O)c1cnn2cc(-c3cnn(C)c3)sc12 [Example 3, N-(5-((2-(5-azaspiro[3.4]octan-5-yl)ethyl)carbamoyl)-2-methylpyridin-3-yl)-2-(1-methyl-1H-pyrazol-4-yl)pyrazolo[5,1-b]thiazole-7-carboxamide] | 6 | –
Cc1ncc(NC(=O)CN2[C@H](C)COC[C@H]2C)cc1NC(=O)c1cnn2cc(-c3cnn(C)c3)sc12 [Example 51, N-(5-(2-((3R,5R)-3,5-dimethylmorpholino)acetamido)-2-methylpyridin-3-yl)-2-(1-methyl-1H-pyrazol-4-yl)pyrazolo[5,1-b]thiazole-7-carboxamide] | 6.8 | –
Cc1ncc(NC(=O)CNC2(C)CCC2)cc1NC(=O)c1cnn2cc(-c3cnn4c3OCCC4)sc12 [Example 495, 2-(6,7-dihydro-5H-pyrazolo[5,1-b][1,3]oxazin-3-yl)-N-(2-methyl-5-(2-((1-methylcyclobutyl)amino)acetamido)pyridin-3-yl)pyrazolo[5,1-b]thiazole-7-carboxamide] | 3.8 | –
Cc1ncc(NC(=O)CN2CCCCC23CC3)cc1NC(=O)c1cnn2cc(-c3cnn(CCO)c3)sc12 [Example 86, N-(5-(2-(4-azaspiro[2.5]octan-4-yl)acetamido)-2-methylpyridin-3-yl)-2-(1-(2-hydroxyethyl)-1H-pyrazol-4-yl)pyrazolo[5,1-b]thiazole-7-carboxamide] | 18.4 | –
Cc1ncc(NC(=O)CCN2CC3CCC2CC3)cc1NC(=O)c1cnn2cc(-c3cnn(C)c3)sc12 [Example 43, N-(5-(3-(2-azabicyclo[2.2.2]octan-2-yl)propanamido)-2-methylpyridin-3-yl)-2-(1-methyl-1H-pyrazol-4-yl)pyrazolo[5,1-b]thiazole-7-carboxamide] | 7.2 | –
Cc1ncc(NC(=O)CN2C[C@@H](C)O[C@@H](C)C2)cc1NC(=O)c1cnn2cc(-c3cnn(C)c3)sc12 [Example 53, N-(5-(2-((2R,6S)-2,6-dimethylmorpholino)acetamido)-2-methylpyridin-3-yl)-2-(1-methyl-1H-pyrazol-4-yl)pyrazolo[5,1-b]thiazole-7-carboxamide] | 4.3 | –
Cc1ncc(C(=O)NCCN2CCCC2(C)C)cc1NC(=O)c1cnn2cc(-c3ccnc(N4CCOCC4)c3)sc12 [Example 483, N-(5-((2-(2,2-dimethylpyrrolidin-1-yl)ethyl)carbamoyl)-2-methylpyridin-3-yl)-2-(2-morpholinopyridin-4-yl)pyrazolo[5,1-b]thiazole-7-carboxamide] | – | 17.7
Cc1ncc(NC(=O)CCN2CCCC2(C)C)cc1NC(=O)c1cnn2cc(-c3cnn(C)c3)sc12 [Example 42, N-(5-(3-(2,2-dimethylpyrrolidin-1-yl)propanamido)-2-methyl-pyridin-3-yl)-2-(1-methyl-1H-pyrazol-4-yl)pyrazolo[5,1-b]thiazole-7-carboxamide] | 5.9 | –
Cc1ncc(NC(=O)CN2CCc3cnccc3C2)cc1NC(=O)c1cnn2cc(-c3cnn(C)c3)sc12 [Example 62, N-(5-(2-(3,4-dihydro-2,6-naphthyridin-2 (1H)-yl)acetamido)-2-methylpyridin-3-yl)-2-(1-methyl-1H-pyrazol-4-yl)pyrazolo[5,1-b]thiazole-7-carboxamide] | 111 | –
Cc1ncc(NC(=O)CN2CCOCC23CCC3)cc1NC(=O)c1cnn2cc(-c3cnn(C)c3)sc12 [Example 78, N-(5-(2-(8-oxa-5-azaspiro[3.5]nonan-5-yl)acetamido)-2-methylpyridin-3-yl)-2-(1-methyl-1H-pyrazol-4-yl)pyrazolo[5,1-b]thiazole-7-carboxamide] | 12.1 | –
Cc1ncc(C(=O)NCCN2CCCC23CC3)cc1NC(=O)c1cnn2cc(-c3cnn(C)c3)sc12 [Example 2, N-(5-((2-(4-azaspiro[2.4]heptan-4-yl)ethyl)carbamoyl)-2-methylpyridin-3-yl)-2-(1-methyl-1H-pyrazol-4-yl)pyrazolo[5,1-b]thiazole-7-carboxamide] | 30.2 | –
Cc1ncc(NC(=O)CN2CCN(C)C(=O)C2)cc1NC(=O)c1cnn2cc(-c3cnn(C)c3)sc12 [Example 72, 2-(1-methyl-1H-pyrazol-4-yl)-N-(2-methyl-5-(2-(4-methyl-3-oxopiperazin-1-yl)acetamido)pyridin-3-yl)pyrazolo[5,1-b]thiazole-7-carboxamide] | > 3000 | –
COCCn1cc(-c2cn3ncc(C(=O)Nc4cc(NC(=O)CCN5CCC6(CC6)C5)cnc4C)c3s2)cn1 [Example 91, N-(5-(3-(5-azaspiro[2.4]heptan-5-yl)propanamido)-2-methylpyridin-3-yl)-2-(1-(2-methoxyethyl)-1H-pyrazol-4-yl)pyrazolo[5,1-b]thiazole-7-carboxamide] | 36.4 | –
Cc1ncc(NC(=O)CN2CCOCC2)cc1NC(=O)c1cnn2cc(-c3cnn(C)c3)sc12 [Example 55, 2-(1-methyl-1H-pyrazol-4-yl)-N-(2-methyl-5-(2-morpholinoacetamido)pyridin-3-yl)pyrazolo[5,1-b]thiazole-7-carboxamide] | 87.1 | –
Cc1ncc(NC(=O)CN2[C@H](C)COC[C@@H]2C)cc1NC(=O)c1cnn2cc(-c3cnn(C)c3)sc12 [Example 71, N-(5-(2-((3S,5R)-3,5-dimethylmorpholino)acetamido)-2-methylpyridin-3-yl)-2-(1-methyl-1H-pyrazol-4-yl)pyrazolo[5,1-b]thiazole-7-carboxamide] | 90.9 | –
Cc1ncc(NC(=O)CN2Cc3cccnc3C2)cc1NC(=O)c1cnn2cc(-c3cnn(C)c3)sc12 [Example 48, N-(5-(2-(5H-pyrrolo[3,4-b]pyridin-6 (7H)-yl)acetamido)-2-methylpyridin-3-yl)-2-(1-methyl-1H-pyrazol-4-yl)pyrazolo[5,1-b]thiazole-7-carboxamide] | 49.3 | –
Cc1ncc(NC(=O)CN2CCO[C@@H](C)C2)cc1NC(=O)c1cnn2cc(-c3cnn(C)c3)sc12 [Example 64, (S)-2-(1-methyl-1H-pyrazol-4-yl)-N-(2-methyl-5-(2-(2-methylmorpholino)acetamido)pyridin-3-yl)pyrazolo[5,1-b]thiazole-7-carboxamide] | 8.6 | –
Cc1ncc(NC(=O)CNCC(C)C)cc1NC(=O)c1cnn2cc(-c3cnn4c3CCC4)sc12 [Example 493, 2-(5,6-dihydro-4H-pyrrolo[1,2-b]pyrazol-3-yl)-N-(5-(2-(isobutylamino)acetamido)-2-methylpyridin-3-yl)pyrazolo[5,1-b]thiazole-7-carboxamide] | 7 | –
CC[C@@H]1COCCN1CC(=O)Nc1cnc(C)c(NC(=O)c2cnn3cc(-c4cnn(C)c4)sc23)c1 [Example 69, (R)—N-(5-(2-(3-ethylmorpholino)acetamido)-2-methylpyridin-3-yl)-2-(1-methyl-1H-pyrazol-4-yl)pyrazolo[5,1-b]thiazole-7-carboxamide] | 12.1 | –
COCCn1cc(-c2cn3ncc(C(=O)Nc4cc(NC(=O)CCN5CCC(C)(C)C5)cnc4C)c3s2)cn1 [Example 89, N-(5-(3-(3,3-dimethylpyrrolidin-1-yl)propanamido)-2-methylpyridin-3-yl)-2-(1-(2-methoxyethyl)-1H-pyrazol-4-yl)pyrazolo[5,1-b]thiazole-7-carboxamide] | 26.2 | –
Cc1ncc(NC(=O)CN2Cc3ncsc3C2)cc1NC(=O)c1cnn2cc(-c3cnn(C)c3)sc12 [Example 76, N-(5-(2-(4H-pyrrolo[3,4-d]thiazol-5 (6H)-yl)acetamido)-2-methylpyridin-3-yl)-2-(1-methyl-1H-pyrazol-4-yl)pyrazolo[5,1-b]thiazole-7-carboxamide] | 36.9 | –
CC[C@H]1COCCN1CC(=O)Nc1cnc(C)c(NC(=O)c2cnn3cc(-c4cnn(C)c4)sc23)c1 [Example 70, (S)—N-(5-(2-(3-ethylmorpholino)acetamido)-2-methylpyridin-3-yl)-2-(1-methyl-1H-pyrazol-4-yl)pyrazolo[5,1-b]thiazole-7-carboxamide] | 6.4 | –
CC[C@@H]1CN(CC(=O)Nc2cnc(C)c(NC(=O)c3cnn4cc(-c5cnn(C)c5)sc34)c2)CCO1 [Example 65, (R)—N-(5-(2-(2-ethylmorpholino)acetamido)-2-methylpyridin-3-yl)-2-(1-methyl-1H-pyrazol-4-yl)pyrazolo[5,1-b]thiazole-7-carboxamide] | 6.8 | –
COCCn1cc(-c2cn3ncc(C(=O)Nc4cc(NC(=O)CCN5C[C@H]6CC[C@@H]5C6)cnc4C)c3s2)cn1 [Example 94, N-(5-(3-((1R,4S)-2-azabicyclo[2.2.1]heptan-2-yl)propanamido)-2-methylpyridin-3-yl)-2-(1-(2-methoxyethyl)-1H-pyrazol-4-yl)pyrazolo[5,1-b]thiazole-7-carboxamide] | 143 | –
COC1CCN(CC(=O)Nc2cnc(C)c(NC(=O)c3cnn4cc(-c5cnn(C)c5)sc34)c2)CC1 [Example 83, N-(5-(2-(4-methoxypiperidin-1-yl)acetamido)-2-methylpyridin-3-yl)-2-(1-methyl-1H-pyrazol-4-yl)pyrazolo[5,1-b]thiazole-7-carboxamide] | 44.1 | –
Cc1ncc(NC(=O)CN2C[C@H](C)O[C@@H](C)C2)cc1NC(=O)c1cnn2cc(-c3cnn(C)c3)sc12 [Example 52, N-(5-(2-((2S,6S)-2,6-dimethylmorpholino)acetamido)-2-methylpyridin-3-yl)-2-(1-methyl-1H-pyrazol-4-yl)pyrazolo[5,1-b]thiazole-7-carboxamide] | 0.9 | –

From US20240109917A1 (ACTELION PHARMACEUTICALS LTD, priority 2020, published 2024)
